Experimental data: ChEMBL document CHEMBL1201862, “PubChem BioAssay data set” (2004)
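1) Cells in 96-well plates. 2) Compound, 48 h, 5 concentrations. 3) Linear interpolation between surrounding doses. 4) Unreached endpoint = highest concentration. GI50 = concentration required for 50% inhibition of growth.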 Activity calls are given as the source filed them. No stated cut-off is given here; in the data, active = GI50 up to about 1.1 µM and inactive = higher.

Experiments:
Assay in all cases: growth of human tumour cells (NCI), 48 h
MDA-MB-231 = system: MDA-MB-231
UACC-62 = system: UACC-62
SK-MEL-2 = system: SK-MEL-2
OVCAR-5 = system: OVCAR-5
COLO 205 = system: COLO 205
IGROV-1 = system: IGROV-1
NCI-H522 = system: NCI-H522
Hs-578T = system: Hs-578T
RXF 393 = system: RXF 393
NCI/ADR-RES = system: NCI/ADR-RES
NCI-H226 = system: NCI-H226
SK-MEL-5 = system: SK-MEL-5
EKVX = system: EKVX
SF-539 = system: SF-539
A549 = system: A549
HT-29 = system: HT-29
T47D = system: T47D
LOX IMVI = system: LOX IMVI
SN12C = system: SN12C

Measured: GI50

CC(=O)Nc1ccccc1C=C1c2ccccc2-c2ccccc21
inactive: MDA-MB-231 17.7 µM | UACC-62 41.7 µM | SK-MEL-2 34 µM | OVCAR-5 35.9 µM | COLO 205 78.2 µM | IGROV-1 33 µM | NCI-H522 20.2 µM | Hs-578T > 100 µM | RXF 393 20.8 µM | NCI/ADR-RES 18.7 µM | NCI-H226 28 µM | SK-MEL-5 57.3 µM | EKVX 38.8 µM | SF-539 13.2 µM | A549 24.1 µM | HT-29 > 100 µM | T47D 30.4 µM | LOX IMVI > 100 µM | SN12C 19.1 µM

c1ccc(-c2cc(-c3ccncc3)cc(-c3ccncc3)n2)cc1
inactive: MDA-MB-231 > 100 µM | UACC-62 > 100 µM | SK-MEL-2 > 100 µM | OVCAR-5 > 100 µM | COLO 205 > 100 µM | IGROV-1 > 100 µM | NCI-H522 18.2 µM | Hs-578T 38.5 µM | RXF 393 > 100 µM | NCI/ADR-RES > 100 µM | NCI-H226 > 100 µM | SK-MEL-5 > 100 µM | EKVX > 100 µM | A549 > 100 µM | HT-29 > 100 µM | T47D > 100 µM | LOX IMVI > 100 µM | SN12C > 100 µM

COC(=O)/C=C/[C@@H]1[C@H](C)N1S(=O)(=O)c1ccc(C)cc1 (some centres undefined)
inactive: MDA-MB-231 78.7 µM | UACC-62 > 100 µM | SK-MEL-2 29.7 µM | OVCAR-5 > 100 µM | COLO 205 > 100 µM | IGROV-1 > 100 µM | NCI-H522 > 100 µM | Hs-578T > 100 µM | RXF 393 > 100 µM | NCI/ADR-RES > 100 µM | NCI-H226 > 100 µM | SK-MEL-5 > 100 µM | EKVX > 100 µM | SF-539 > 100 µM | A549 > 100 µM | HT-29 > 100 µM | T47D > 100 µM | LOX IMVI 56.4 µM | SN12C > 100 µM

CCOC(=O)C1(C#N)CC1
inactive: MDA-MB-231 > 100 µM | UACC-62 > 100 µM | SK-MEL-2 > 100 µM | OVCAR-5 > 100 µM | COLO 205 > 100 µM | IGROV-1 > 100 µM | NCI-H522 > 100 µM | Hs-578T > 100 µM | RXF 393 7.94 µM | NCI/ADR-RES > 100 µM | NCI-H226 > 100 µM | SK-MEL-5 > 100 µM | EKVX > 100 µM | SF-539 > 100 µM | A549 > 100 µM | HT-29 > 100 µM | T47D > 100 µM | LOX IMVI > 100 µM | SN12C > 100 µM

CCOC(=O)/C(=C/NC(=S)Nc1c(CC)cccc1C(C)(C)C)C(=O)c1ccccc1
inactive: MDA-MB-231 > 100 µM | UACC-62 > 100 µM | SK-MEL-2 > 100 µM | OVCAR-5 > 100 µM | COLO 205 > 100 µM | IGROV-1 > 100 µM | NCI-H522 > 100 µM | Hs-578T 13.2 µM | RXF 393 > 100 µM | NCI/ADR-RES > 100 µM | NCI-H226 > 100 µM | SK-MEL-5 > 100 µM | EKVX > 100 µM | SF-539 > 100 µM | A549 > 100 µM | HT-29 > 100 µM | T47D > 100 µM | LOX IMVI > 100 µM | SN12C > 100 µM
